Like-named read-outs stand apart in the source and are kept apart here.

Experiment [1] has as its target AChE (Homo sapiens, UniProt P22303). The experiment can be described thus: biochemical. It is filed as biochemical. The conditions noted are these: for Selectivity Index: AChE and BuChE IC50 values. On the procedure:
(§1) The inhibition of AChE and BChE was determined using a method described earlier. Briefly, the stock solutions (1 mg/mL) of test analogues were prepared using DMSO. The working solutions (1–100 μg/mL) were prepared using serial dilutions (a serial dilution means a series of diluted solutions, e.g., 0.1 mg/mL, 0.2 mg/mL and so on; the solutions contained 5% DMSO and 95% water). The various concentrations of test compounds (10 μL) were pre-incubated with sodium phosphate buffer (0.1 M; pH 8.0; 150 μL) and AChE (0.1 U/mL; 20 μL) for 15 min at 25 °C. The reaction was initiated via the addition of DTNB (1 mM; 10 μL) and […] (1 mM; 10 μL). The mixture of reaction was mixed using a cyclomixer and incubated for 10 min at 25 °C. The absorbance was measured using a microplate reader at a 410 nm wavelength against the blank reading containing 10μL DMSO instead of the test compound (the solution contained 5% DMSO and 95% water).
(§2) % Inhibition = (Absorbance of control—Absorbance of compound)/Absorbance of control × 100

Experiment [2] deals with BuChE (Homo sapiens, UniProt P06276). Briefly: biochemical. The format is biochemical. On the procedure: as §1, §2
Chain of BuChE (P06276 29-602): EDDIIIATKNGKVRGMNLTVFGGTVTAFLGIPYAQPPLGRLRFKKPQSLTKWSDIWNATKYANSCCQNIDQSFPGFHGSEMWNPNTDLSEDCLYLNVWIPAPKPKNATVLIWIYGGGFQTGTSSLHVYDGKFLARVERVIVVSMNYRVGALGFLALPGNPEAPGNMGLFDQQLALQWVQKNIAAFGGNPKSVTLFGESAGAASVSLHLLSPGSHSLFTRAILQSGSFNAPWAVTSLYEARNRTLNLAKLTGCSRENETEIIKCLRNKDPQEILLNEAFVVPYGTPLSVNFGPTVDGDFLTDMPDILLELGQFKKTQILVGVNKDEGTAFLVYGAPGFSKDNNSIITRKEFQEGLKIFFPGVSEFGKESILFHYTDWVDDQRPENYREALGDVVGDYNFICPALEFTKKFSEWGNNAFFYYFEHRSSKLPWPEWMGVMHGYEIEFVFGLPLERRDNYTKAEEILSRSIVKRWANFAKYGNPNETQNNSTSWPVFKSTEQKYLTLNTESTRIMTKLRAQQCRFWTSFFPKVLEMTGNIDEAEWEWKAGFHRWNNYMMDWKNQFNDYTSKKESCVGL

Chain of AChE (P22303 32-614): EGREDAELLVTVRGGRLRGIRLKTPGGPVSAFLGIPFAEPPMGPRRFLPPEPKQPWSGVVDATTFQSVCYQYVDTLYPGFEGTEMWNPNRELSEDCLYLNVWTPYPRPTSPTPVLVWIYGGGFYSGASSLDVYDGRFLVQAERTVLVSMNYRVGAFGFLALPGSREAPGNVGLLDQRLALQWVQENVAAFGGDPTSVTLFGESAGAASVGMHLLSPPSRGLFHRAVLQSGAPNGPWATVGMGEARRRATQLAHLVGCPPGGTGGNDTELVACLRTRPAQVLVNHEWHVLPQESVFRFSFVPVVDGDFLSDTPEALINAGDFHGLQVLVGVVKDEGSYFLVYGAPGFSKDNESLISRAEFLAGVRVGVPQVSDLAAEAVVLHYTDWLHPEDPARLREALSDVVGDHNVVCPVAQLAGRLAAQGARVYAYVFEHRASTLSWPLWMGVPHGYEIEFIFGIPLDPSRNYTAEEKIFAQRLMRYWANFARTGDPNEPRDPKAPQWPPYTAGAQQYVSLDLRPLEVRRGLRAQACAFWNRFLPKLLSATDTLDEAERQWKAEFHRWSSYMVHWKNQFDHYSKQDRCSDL

Turning to `Cc1ccc(/C(CSc2nc3ccccc3[nH]2)=N\Nc2nc(-c3cc(Cl)c(O)cc3[N+](=O)[O-])cs2)c([N+](=O)[O-])c1` [compound 12, (E)-4-(2-(2-(2-((1H-benzo[d]imidazol-2-yl)thio)-1-(4-methyl-2-nitrophenyl)ethylidene)hydrazinyl)thiazol-4-yl)-2-chloro-5-nitrophenol], the IC50 in experiment [1] was 1.4 ± 0.1 µM; in experiment [2], 2.1 ± 0.1 µM. The “Selectivity Index” value in experiment [1] worked out at 1.5.

As to `Cc1ccc(/C(CSc2nc3ccccc3[nH]2)=N\Nc2nc(-c3ccc(Cl)c(Cl)c3)cs2)cc1` [compound 11, (E)-2-(2-(2-((1H-benzo[d]imidazol-2-yl)thio)-1-(p-tolyl)ethylidene)hydrazinyl)-4-(3,4-dichlorophenyl)thiazole], the “Selectivity Index” value in experiment [1] is on record as 2.75. Also, the IC50 amounted to 0.4 ± 0.05 µM in experiment [1] (read-out: IC50AChE) and 1.1 ± 0.1 µM in experiment [2] (read-out: IC50BuChE).

Consider `Cc1ccc(/C(CSc2nc3ccccc3[nH]2)=N\Nc2nc(-c3ccccc3[N+](=O)[O-])cs2)cc1` [compound 7, (E)-2-(2-(2-((1H-benzo[d]imidazol-2-yl)thio)-1-(p-tolyl)ethylidene)hydrazinyl)-4-(2-nitrophenyl)thiazole], for which, in experiment [1], the “Selectivity Index” value was 1.21. For the same molecule, the values for the IC50 in experiment [1] (read-out: IC50AChE) and in experiment [2] (read-out: IC50BuChE) were 2.9 ± 0.1 µM and 3.5 ± 0.1 µM, respectively.

Take `Clc1ccc(/C(CSc2nc3ccccc3[nH]2)=N\Nc2nc(-c3ccc(Cl)c(Cl)c3)cs2)cc1Cl` [compound 21, (E)-2-(2-(2-((1H-benzo[d]imidazol-2-yl)thio)-1-(3,4-dichlorophenyl)ethylidene) hydrazinyl)-4-(3,4-dichlorophenyl)thiazole]: the “Selectivity Index” value in experiment [1] is recorded as 2.0. In addition, the IC50 in experiment [1] (read-out: IC50AChE) amounted to 0.1 ± 0.05 µM; in experiment [2] (read-out: IC50BuChE), 0.2 ± 0.05 µM.

As for `COc1cccc(-c2csc(N/N=C(/CSc3nc4ccccc4[nH]3)c3ccccc3)n2)c1` [compound 4, (E)-2-(2-(2-((1H-benzo[d]imidazol-2-yl)thio)-1-phenylethylidene)hydrazinyl)-4-(3-methoxyphenyl)thiazole], the “Selectivity Index” value in experiment [1] amounted to 1.51. In addition, the figures for the IC50 in experiment [1] (read-out: IC50AChE) and in experiment [2] (read-out: IC50BuChE) were 3.5 ± 0.1 µM and 5.3 ± 0.1 µM, respectively.

For the molecule `Oc1ccc(-c2csc(N/N=C(/CSc3nc4ccccc4[nH]3)c3ccccc3)n2)cc1` [compound 3, (E)-4-(2-(2-(2-((1H-benzo[d]imidazol-2-yl)thio)-1-phenylethylidene) hydrazinyl)thiazol-4-yl)phenol], in experiment [1], the “Selectivity Index” value amounted to 2.25. The figures for the IC50 in experiment [1] (read-out: IC50AChE) and in experiment [2] (read-out: IC50BuChE) were 0.8 ± 0.1 µM and 1.8 ± 0.1 µM, respectively.

For `Cc1ccc(/C(CSc2nc3ccccc3[nH]2)=N\Nc2nc(-c3cccc([N+](=O)[O-])c3)cs2)cc1` [compound 8, (E)-2-(2-(2-((1H-benzo[d]imidazol-2-yl)thio)-1-(p-tolyl)ethylidene)hydrazinyl)-4-(3-nitrophenyl)thiazole], in experiment [1], the “Selectivity Index” value came to 1.25. In addition, the IC50 in experiment [1] (read-out: IC50AChE) was 6.3 ± 0.1 µM; in experiment [2] (read-out: IC50BuChE), 7.9 ± 0.1 µM.

On to `O=[N+]([O-])c1ccccc1-c1csc(N/N=C(/CSc2nc3ccccc3[nH]2)c2ccc(Cl)c(Cl)c2)n1` [compound 17, (E)-2-(2-(2-((1H-benzo[d]imidazol-2-yl)thio)-1-(3,4-dichlorophenyl)ethylidene) hydrazinyl)-4-(2-nitrophenyl)thiazole], for which the “Selectivity Index” value in experiment [1] is given as 1.64. Also, the IC50 was found to be 1.1 ± 0.05 µM in experiment [1] (read-out: IC50AChE) and 1.8 ± 0.1 µM in experiment [2] (read-out: IC50BuChE).

As to `Cc1ccc(-c2csc(N/N=C(/CSc3nc4ccccc4[nH]3)c3ccccc3)n2)cc1` [compound 5, (E)-2-(2-(2-((1H-benzo[d]imidazol-2-yl)thio)-1-phenylethylidene)hydrazinyl)-4-(p-tolyl)thiazole], in experiment [1], the “Selectivity Index” value stood at 1.24. The IC50 in experiment [1] (read-out: IC50AChE) came to 8.6 ± 0.2 µM; in experiment [2] (read-out: IC50BuChE) it was 10.7 ± 0.2 µM.

With `COc1cccc(-c2csc(N/N=C(/CSc3nc4ccccc4[nH]3)c3ccc(Cl)c(Cl)c3)n2)c1` [compound 20, (E)-2-(2-(2-((1H-benzo[d]imidazol-2-yl)thio)-1-(3,4-dichlorophenyl)ethylidene) hydrazinyl)-4-(3-methoxyphenyl)thiazole], the “Selectivity Index” value in experiment [1] is listed as 1.58. For the same molecule, the IC50 in experiment [1] (read-out: IC50AChE) is 1.2 ± 0.1 µM; in experiment [2] (read-out: IC50BuChE), 1.9 ± 0.1 µM.

Regarding `CN(C)c1cc([N+](=O)[O-])c(-c2csc(N/N=C(/CSc3nc4ccccc4[nH]3)c3ccc(-c4ccccc4)cc3)n2)cc1O` [compound 10, (E)-5-(2-(2-(2-((1H-benzo[d]imidazol-2-yl)thio)-1-([1,1’-biphenyl]-4-yl)ethylidene)hydrazinyl)thiazol-4-yl)-2-(dimethylamino)-4-nitrophenol], the IC50AChE entry in experiment [1] was “inactivity”. In addition, the IC50BuChE result in experiment [2] is “inactivity”.

`O=[N+]([O-])c1ccccc1/C(CSc1nc2ccccc2[nH]1)=N\Nc1nc(-c2ccc(O)cc2)cs1` [compound 16, (E)-4-(2-(2-(2-((1H-benzo[d]imidazol-2-yl)thio)-1-(2-nitrophenyl)ethylidene) hydrazinyl)thiazol-4-yl)phenol]: the “Selectivity Index” value in experiment [1] is 2.5. In addition, the results for the IC50 in experiment [1] (read-out: IC50AChE) and in experiment [2] (read-out: IC50BuChE) were 0.2 ± 0.05 µM and 0.5 ± 0.05 µM, respectively.

Take `O=[N+]([O-])c1ccccc1/C(CSc1nc2ccccc2[nH]1)=N\Nc1nc(-c2ccc(Cl)c(Cl)c2)cs1` [compound 15, (E)-2-(2-(2-((1H-benzo[d]imidazol-2-yl)thio)-1-(2-nitrophenyl)ethylidene) hydrazinyl)-4-(3,4-dichlorophenyl)thiazole]: the “Selectivity Index” value in experiment [1] is 2.33. Moreover, the IC50 in experiment [1] (read-out: IC50AChE) is 0.3 ± 0.05 µM; in experiment [2] (read-out: IC50BuChE), 0.7 ± 0.05 µM.

For the molecule `COc1ccccc1-c1csc(N/N=C(/CSc2nc3ccccc3[nH]2)c2ccc(Cl)c(Cl)c2)n1` [compound 22, (E)-2-(2-(2-((1H-benzo[d]imidazol-2-yl)thio)-1-(3,4-dichlorophenyl)ethylidene) hydrazinyl)-4-(2-methoxyphenyl)thiazole], the “Selectivity Index” value in experiment [1] was 1.75. The IC50 in experiment [1] (read-out: IC50AChE) stood at 0.4 ± 0.2 µM; in experiment [2] (read-out: IC50BuChE), 0.7 ± 0.1 µM.

Consider `Cc1ccc(-c2csc(N/N=C(/CSc3nc4ccccc4[nH]3)c3ccc(Cl)c(Cl)c3)n2)cc1` [compound 19, (E)-2-(2-(2-((1H-benzo[d]imidazol-2-yl)thio)-1-(3,4-dichlorophenyl)ethylidene) hydrazinyl)-4-(p-tolyl)thiazole], for which the “Selectivity Index” value in experiment [1] is on record as 0.92. For the same molecule, the IC50 turned out to be 1.4 ± 0.1 µM in experiment [1] (read-out: IC50AChE) and 1.3 ± 0.1 µM in experiment [2] (read-out: IC50BuChE).

Turning to `Cc1ccc(/C(CSc2nc3ccccc3[nH]2)=N\Nc2nc(-c3ccc(C)cc3)cs2)cc1` [compound 24, (E)-2-(2-(2-((1H-benzo[d]imidazol-2-yl)thio)-1-(p-tolyl)ethylidene)hydrazinyl)-4-(p-tolyl)thiazole], the “Selectivity Index” value in experiment [1] was determined as 1.28. The IC50 in experiment [1] (read-out: IC50AChE) worked out at 11.1 ± 0.3 µM; in experiment [2] (read-out: IC50BuChE), 14.2 ± 0.1 µM.

Take `Cc1ccc(-c2csc(N/N=C(/CSc3nc4ccccc4[nH]3)c3ccccc3[N+](=O)[O-])n2)cc1` [compound 13, (E)-2-(2-(2-((1H-benzo[d]imidazol-2-yl)thio)-1-(2-nitrophenyl)ethylidene) hydrazinyl)-4-(p-tolyl)thiazole]: the “Selectivity Index” value in experiment [1] is 1.59. Also, the IC50 in experiment [1] (read-out: IC50AChE) was determined as 3.2 ± 0.1 µM; in experiment [2] (read-out: IC50BuChE), 5.1 ± 0.1 µM.

Turning to `COc1cccc(-c2csc(N/N=C(/CSc3nc4ccccc4[nH]3)c3ccccc3[N+](=O)[O-])n2)c1` [compound 14, (E)-2-(2-(2-((1H-benzo[d]imidazol-2-yl)thio)-1-(2-nitrophenyl)ethylidene) hydrazinyl)-4-(3-methoxyphenyl)thiazole], the “Selectivity Index” value in experiment [1] is listed as 1.35. Moreover, the IC50 worked out at 3.1 ± 0.1 µM in experiment [1] (read-out: IC50AChE) and 4.2 ± 0.1 µM in experiment [2] (read-out: IC50BuChE).

Turning to `Clc1ccc(-c2csc(N/N=C(/CSc3nc4ccccc4[nH]3)c3ccccc3)n2)cc1Cl` [compound 6, (E)-2-(2-(2-((1H-benzo[d]imidazol-2-yl)thio)-1-phenylethylidene)hydrazinyl)-4-(3,4-dichlorophenyl)thiazole], the “Selectivity Index” value in experiment [1] was 2.0. The IC50 in experiment [1] (read-out: IC50AChE) came to 0.7 ± 0.05 µM; in experiment [2] (read-out: IC50BuChE) it was 1.4 ± 0.05 µM.

`O=[N+]([O-])c1cccc(-c2csc(N/N=C(/CSc3nc4ccccc4[nH]3)c3ccc(Cl)c(Cl)c3)n2)c1` [compound 18, (E)-2-(2-(2-((1H-benzo[d]imidazol-2-yl)thio)-1-(3,4-dichlorophenyl)ethylidene) hydrazinyl)-4-(3-nitrophenyl)thiazole]: the “Selectivity Index” value in experiment [1] is reported as 1.71. The values for the IC50 in experiment [1] (read-out: IC50AChE) and in experiment [2] (read-out: IC50BuChE) were 0.7 ± 0.05 µM and 1.2 ± 0.1 µM, respectively.

`O=[N+]([O-])c1cc(O)c(Cl)cc1-c1csc(N/N=C(/CSc2nc3ccccc3[nH]2)c2cccc(O)c2[N+](=O)[O-])n1` [compound 9, (E)-4-(2-(2-(2-((1H-benzo[d]imidazol-2-yl)thio)-1-(3-hydroxy-2-nitrophenyl)ethylidene)hydrazinyl)thiazol-4-yl)-2-chloro-5-nitrophenol]: the IC50 in experiment [1] was found to be 1.3 ± 0.1 µM; in experiment [2], 3.2 ± 0.1 µM. Also, the “Selectivity Index” value in experiment [1] stood at 2.46.

`O=[N+]([O-])c1cc(O)c(Cl)cc1-c1csc(N/N=C(/CSc2nc3ccccc3[nH]2)c2ccccc2O)n1` [compound 2, (E)-4-(2-(2-(2-((1H-benzo[d]imidazol-2-yl)thio)-1-(2-hydroxyphenyl)ethylidene)hydrazinyl)thiazol-4-yl)-2-chloro-5-nitrophenol]: the results for the IC50 in experiment [1] (read-out: IC50AChE) and in experiment [2] (read-out: IC50BuChE) were 2.3 ± 0.1 µM and 3.2 ± 0.1 µM, respectively.

The values above are taken from article PMC9504419, “Multipotent Cholinesterase Inhibitors for the Treatment of Alzheimer’s Disease: Synthesis, Biological Analysis and Molecular Docking Study of Benzimidazole-Based Thiazole Derivatives” (Molecules, 2022).
